Experimental data published in PMC7719162, “Positioning of an unprecedented spiro[5.5]undeca ring system into kinase inhibitor space” (Scientific Reports, 2020).
Read-outs that look alike come from different tables or passages of the source.

How the values were obtained:
[1] = tested on: BV-2 cells; test: MTT cell viability assay; format: cell-based, murine; conditions: 5 μM compound, % of LPS, mean ± SD
Procedure: (§1) 3-(4,5-dimethylthiazol-2-yl)-2,5-diphenyl-tetrazolium bromide (MTT) assay was performed to evaluate the cytotoxicity of the samples to the microglia. BV2 cells at the density of 4 × 10^4 cells /well were seeded in the 96 well plate and incubated for 24 h. Seeded cells were pre-treated with different concentration of the samples, and LPS (100 ng/ml) activation was performed after 30 min of compound treatment. Treated plate were incubated for 24 h in the incubator and nitric oxide assay and cell viability assay was performed. Treated cell’s conditioned medium was used to evaluate the NO assay, and the attached cells were used to evaluate the cell viability assay. 50 µL of conditioned medium (CM) from treated cells were transferred to a new 96 well plate for NO assay. This CM was mixed with the equal volume of the mixture of Gries reagent ((1% sulfanilamide and 0.1% N-1-napthylethylenediamine dihydrochloride). NaNO2 was used as standard and the colorimetric change were evidenced by measuring its OD at 540 nm in a microplate reader. The cells in the plate were incubated for 1 h with MTT solution making it the final concentration of […]. Blue stained cells were incubated with 200 ul of DMSO and the solution get changed to purple/formazan color and it was observed by measuring the absorbance at 570 nm in a microplate reader.NG-mono-methyl-L-arginine (L-NMMA), a well-known nitric oxide synthase (NOS) inhibitor, was used as a positive control.

[2] = biological target: T1, P38b/MAPK11 (Homo sapiens, UniProt Q15759); conditions: cited from earlier work
T1 construct: purchased Reaction Biology Corp

[3] = biological target: T2, CDK1/cyclin B (Homo sapiens, UniProt P06493); conditions: cited from earlier work
T2 construct: purchased Reaction Biology Corp

[4] = biological target: T3, MST3/STK24 (Homo sapiens, UniProt Q9Y6E0); conditions: cited from earlier work
T3 construct: purchased Reaction Biology Corp

[5] = tested on: NO production in LPS-activated BV-2 cells; test: NO production assay (Griess) in LPS-activated BV-2 cells; format: cell-based, murine; conditions: read-out: NO Inhibition IC50
Procedure: as §1

[6] = biological target: T4, PKN2/PRK2 (Homo sapiens, UniProt Q16513); conditions: cited from earlier work
T4 construct: purchased Reaction Biology Corp

[7] = MTT cell viability assay; format: cell-based, murine; conditions: mouse, BV-2 microglia cells (LPS-activated), mean ± SD
Procedure: as §1

[8] = biological target: T5, AMPK(A1/B2/G1) (Homo sapiens, UniProt Q13131); test: Kinase panel assay (radiolabelled); format: biochemical; conditions: 30 μM compound, ATP 10 μM; duplicates Data 1/Data 2
T5 construct: purchased Reaction Biology Corp

[9] = biological target: T6, AMPK(A1/B2/G1) (Homo sapiens, UniProt O43741+P54619+Q13131); test: Kinase panel assay (radiolabelled); format: biochemical; conditions: 30 μM compound, ATP 10 μM; duplicates Data 1/Data 2; read-out: % Enzyme Activity (relative to DMSO controls)
T6 construct: purchased Reaction Biology Corp

[10] = biological target: T7, PI3Kb (p110b/p85a) (Homo sapiens, UniProt P42338); test: Kinase panel assay (lipid kinase); format: biochemical; conditions: 30 μM compound, ATP 10 μM, duplicates Data 1/Data 2
T7 construct: purchased Reaction Biology Corp

[11] = biological target: T8, GSK3b (Homo sapiens, UniProt P49841); test: Kinase panel assay (radiolabelled); format: biochemical
T8 construct: purchased Reaction Biology Corp

[12] = biological target: T9, AMPK(A1/B1/G3) (Homo sapiens, UniProt Q13131); test: Kinase panel assay (radiolabelled); format: biochemical; conditions: 30 μM compound, ATP 10 μM; duplicates Data 1/Data 2
T9 construct: purchased Reaction Biology Corp

[13] = biological target: T10, AMPK(A1/B1/G3) (Homo sapiens, UniProt Q13131+Q9UGI9+Q9Y478); test: Kinase panel assay (radiolabelled); format: biochemical; conditions: 30 μM compound, ATP 10 μM; duplicates Data 1/Data 2; read-out: % Enzyme Activity (relative to DMSO controls)
T10 construct: purchased Reaction Biology Corp

[14] = biological target: T11, EEF2K (Homo sapiens, UniProt O00418); test: Kinase panel assay (radiolabelled); format: biochemical; conditions: 30 μM compound, ATP 10 μM, duplicates Data 1/Data 2
T11 construct: purchased Reaction Biology Corp

[15] = biological target: T12, PI4Ka (Homo sapiens, UniProt P42356); test: Kinase panel assay (lipid kinase); format: biochemical; conditions: 30 μM compound, ATP 10 μM, duplicates Data 1/Data 2
T12 construct: purchased Reaction Biology Corp

[16] = biological target: T13, AMPK(A2/B2/G3) (Homo sapiens, UniProt P54646); test: Kinase panel assay (radiolabelled); format: biochemical; conditions: 30 μM compound, ATP 10 μM; duplicates Data 1/Data 2
T13 construct: purchased Reaction Biology Corp

[17] = biological target: T14, AMPK(A2/B2/G3) (Homo sapiens, UniProt O43741+P54646+Q9UGI9); test: Kinase panel assay (radiolabelled); format: biochemical; conditions: 30 μM compound, ATP 10 μM; duplicates Data 1/Data 2; read-out: % Enzyme Activity (relative to DMSO controls)
T14 construct: purchased Reaction Biology Corp

[18] = biological target: GSK3β (Homo sapiens, UniProt P49841); test: GSK3β radiolabelled kinase assay (% residual activity, IC50, ATP competition); format: biochemical
[19] = biological target: T15, DNA-PK (Homo sapiens, UniProt P78527); test: Kinase panel assay (radiolabelled); format: biochemical; conditions: 30 μM compound, ATP 10 μM, duplicates Data 1/Data 2
T15 construct: purchased Reaction Biology Corp

[20] = biological target: T16, SPHK2 (Homo sapiens, UniProt Q9NRA0); test: Kinase panel assay (lipid kinase); format: biochemical; conditions: 30 μM compound, ATP 10 μM, duplicates Data 1/Data 2
T16 construct: purchased Reaction Biology Corp

[21] = biological target: T17, SPHK1 (Homo sapiens, UniProt Q9NYA1); test: Kinase panel assay (lipid kinase); format: biochemical; conditions: 30 μM compound, ATP 10 μM, duplicates Data 1/Data 2
T17 construct: purchased Reaction Biology Corp

[22] = tested on: PGE2; test: Secreted PGE2 immunoassay in LPS-induced BV-2 cells; format: cell-based, murine
Procedure: To evaluate the secreted level of Prostaglandin E2 (PGE2), Tumor necrosis factor (TNF-α), Interleukin (IL-6), Interleukin (IL-1β), BV2 cells were seeded in a 6 well plate at the density of 1.5 × 10^6 cells/well in DMEM and incubated for 24 h. Seeded cells sere pretreated and, activated with LPS for next 24 h. conditioned medium from treated cells were collected and stored at -80 degree for longer period of time. The amount of TNF-α, IL-1β, PGE2,and IL-6 were evaluated using the competitive enzyme immunoassay kit. PGE2 kit were obtained from (Cayman Chemical, Ann Arbor, MI, USA) and TNF-α, IL-1β, and IL-6 were measured using ELISA development kits (R&D Systems, Minneapolis, MN, USA). All the protocol was exactly followed as written in the manual.

[23] = read-out: % Enzyme Activity (relative to DMSO controls)

T8 sequence (P49841 whole entry): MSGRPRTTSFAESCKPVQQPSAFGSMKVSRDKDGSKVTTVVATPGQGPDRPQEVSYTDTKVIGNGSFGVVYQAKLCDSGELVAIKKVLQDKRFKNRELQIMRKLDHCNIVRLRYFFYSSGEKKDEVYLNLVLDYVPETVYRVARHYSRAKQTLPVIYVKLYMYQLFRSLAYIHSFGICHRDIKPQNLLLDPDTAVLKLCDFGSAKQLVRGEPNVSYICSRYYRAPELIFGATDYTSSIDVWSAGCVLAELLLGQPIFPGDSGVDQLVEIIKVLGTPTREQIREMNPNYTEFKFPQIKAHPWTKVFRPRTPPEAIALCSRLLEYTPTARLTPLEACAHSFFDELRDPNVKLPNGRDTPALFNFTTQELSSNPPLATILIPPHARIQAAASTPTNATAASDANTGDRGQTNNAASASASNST
T11 sequence (O00418 whole entry): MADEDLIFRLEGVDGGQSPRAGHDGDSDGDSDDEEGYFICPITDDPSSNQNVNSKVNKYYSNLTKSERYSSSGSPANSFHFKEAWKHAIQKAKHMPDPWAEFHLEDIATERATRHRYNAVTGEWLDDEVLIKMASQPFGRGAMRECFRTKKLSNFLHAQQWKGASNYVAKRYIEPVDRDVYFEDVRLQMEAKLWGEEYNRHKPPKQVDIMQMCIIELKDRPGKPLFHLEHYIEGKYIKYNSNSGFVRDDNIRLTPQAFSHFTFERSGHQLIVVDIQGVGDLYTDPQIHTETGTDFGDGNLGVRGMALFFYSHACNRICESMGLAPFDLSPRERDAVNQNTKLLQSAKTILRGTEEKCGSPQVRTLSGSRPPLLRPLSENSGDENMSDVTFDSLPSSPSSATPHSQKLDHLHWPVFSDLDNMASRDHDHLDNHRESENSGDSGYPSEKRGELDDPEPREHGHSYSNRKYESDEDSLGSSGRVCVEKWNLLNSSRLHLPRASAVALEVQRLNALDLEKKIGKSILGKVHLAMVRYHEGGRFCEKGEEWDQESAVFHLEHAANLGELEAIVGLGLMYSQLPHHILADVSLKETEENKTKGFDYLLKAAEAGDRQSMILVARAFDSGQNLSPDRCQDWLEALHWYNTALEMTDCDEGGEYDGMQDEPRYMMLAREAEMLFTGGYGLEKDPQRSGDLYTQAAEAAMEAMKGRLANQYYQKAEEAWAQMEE
GSK3β, sequence (P49841 whole entry): as the sequence (P49841 whole entry) above
T7 sequence (P42338 whole entry): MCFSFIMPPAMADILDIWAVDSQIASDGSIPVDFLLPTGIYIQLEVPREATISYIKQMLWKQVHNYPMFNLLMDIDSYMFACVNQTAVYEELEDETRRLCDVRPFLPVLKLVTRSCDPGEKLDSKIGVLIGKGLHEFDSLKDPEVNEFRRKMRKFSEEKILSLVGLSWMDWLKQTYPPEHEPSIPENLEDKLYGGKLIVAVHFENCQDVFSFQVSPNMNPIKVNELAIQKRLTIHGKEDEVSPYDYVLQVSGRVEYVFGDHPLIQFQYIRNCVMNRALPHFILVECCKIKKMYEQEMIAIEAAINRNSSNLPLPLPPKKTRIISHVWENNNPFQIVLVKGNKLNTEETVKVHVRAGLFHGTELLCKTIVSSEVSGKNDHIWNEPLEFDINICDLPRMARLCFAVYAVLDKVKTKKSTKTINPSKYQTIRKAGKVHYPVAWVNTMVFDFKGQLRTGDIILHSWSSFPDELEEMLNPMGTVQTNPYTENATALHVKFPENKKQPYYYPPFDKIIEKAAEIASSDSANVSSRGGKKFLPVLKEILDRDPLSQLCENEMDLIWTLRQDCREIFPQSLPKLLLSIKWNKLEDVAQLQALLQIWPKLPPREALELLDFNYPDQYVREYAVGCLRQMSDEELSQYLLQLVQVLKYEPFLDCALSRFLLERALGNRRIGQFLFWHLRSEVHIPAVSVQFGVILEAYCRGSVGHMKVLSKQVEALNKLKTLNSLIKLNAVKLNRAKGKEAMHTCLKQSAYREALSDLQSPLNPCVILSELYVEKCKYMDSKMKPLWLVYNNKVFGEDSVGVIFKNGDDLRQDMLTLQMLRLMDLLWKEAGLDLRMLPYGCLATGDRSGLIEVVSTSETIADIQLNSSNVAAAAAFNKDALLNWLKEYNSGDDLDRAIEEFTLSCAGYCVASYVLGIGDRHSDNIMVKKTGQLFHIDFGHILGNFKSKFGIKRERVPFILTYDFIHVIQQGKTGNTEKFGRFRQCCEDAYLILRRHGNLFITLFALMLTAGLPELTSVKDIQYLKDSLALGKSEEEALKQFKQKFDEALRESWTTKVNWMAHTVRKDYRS
T7 sequence (P27986 whole entry partner): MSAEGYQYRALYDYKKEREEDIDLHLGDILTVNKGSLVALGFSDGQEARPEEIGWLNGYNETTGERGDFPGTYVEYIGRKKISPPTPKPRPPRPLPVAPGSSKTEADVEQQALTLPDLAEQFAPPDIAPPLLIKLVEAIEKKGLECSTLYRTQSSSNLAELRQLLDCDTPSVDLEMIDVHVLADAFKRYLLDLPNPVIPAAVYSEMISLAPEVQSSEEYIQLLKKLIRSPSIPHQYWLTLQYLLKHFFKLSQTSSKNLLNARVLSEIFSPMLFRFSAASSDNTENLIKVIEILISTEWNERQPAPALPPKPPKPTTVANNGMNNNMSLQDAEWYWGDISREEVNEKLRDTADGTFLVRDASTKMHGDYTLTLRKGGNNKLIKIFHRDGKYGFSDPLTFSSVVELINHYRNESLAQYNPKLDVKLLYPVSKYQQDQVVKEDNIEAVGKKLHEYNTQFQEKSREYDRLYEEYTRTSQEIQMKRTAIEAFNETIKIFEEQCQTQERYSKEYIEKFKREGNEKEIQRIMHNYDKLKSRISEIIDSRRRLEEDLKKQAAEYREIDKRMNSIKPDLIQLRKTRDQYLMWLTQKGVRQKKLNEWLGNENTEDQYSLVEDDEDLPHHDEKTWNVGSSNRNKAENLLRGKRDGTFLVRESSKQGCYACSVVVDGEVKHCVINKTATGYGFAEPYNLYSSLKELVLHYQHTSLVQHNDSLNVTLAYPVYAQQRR
T16 sequence (Q9NRA0 whole entry): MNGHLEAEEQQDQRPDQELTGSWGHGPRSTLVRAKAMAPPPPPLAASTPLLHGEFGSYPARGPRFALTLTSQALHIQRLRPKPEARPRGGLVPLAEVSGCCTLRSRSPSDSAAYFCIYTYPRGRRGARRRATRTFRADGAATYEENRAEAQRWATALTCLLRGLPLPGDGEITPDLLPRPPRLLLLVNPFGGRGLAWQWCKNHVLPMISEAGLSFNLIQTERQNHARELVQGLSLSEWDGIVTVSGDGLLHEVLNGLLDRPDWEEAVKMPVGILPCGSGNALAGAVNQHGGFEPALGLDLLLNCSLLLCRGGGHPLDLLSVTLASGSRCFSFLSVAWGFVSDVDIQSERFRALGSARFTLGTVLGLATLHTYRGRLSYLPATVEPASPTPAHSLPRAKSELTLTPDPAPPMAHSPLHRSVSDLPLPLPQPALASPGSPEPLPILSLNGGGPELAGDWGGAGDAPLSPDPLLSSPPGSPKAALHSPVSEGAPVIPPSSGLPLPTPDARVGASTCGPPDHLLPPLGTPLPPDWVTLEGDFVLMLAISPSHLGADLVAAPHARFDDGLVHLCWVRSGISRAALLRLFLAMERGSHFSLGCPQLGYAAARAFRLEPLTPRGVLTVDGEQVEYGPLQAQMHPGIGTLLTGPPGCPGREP
T17 sequence (Q9NYA1 whole entry): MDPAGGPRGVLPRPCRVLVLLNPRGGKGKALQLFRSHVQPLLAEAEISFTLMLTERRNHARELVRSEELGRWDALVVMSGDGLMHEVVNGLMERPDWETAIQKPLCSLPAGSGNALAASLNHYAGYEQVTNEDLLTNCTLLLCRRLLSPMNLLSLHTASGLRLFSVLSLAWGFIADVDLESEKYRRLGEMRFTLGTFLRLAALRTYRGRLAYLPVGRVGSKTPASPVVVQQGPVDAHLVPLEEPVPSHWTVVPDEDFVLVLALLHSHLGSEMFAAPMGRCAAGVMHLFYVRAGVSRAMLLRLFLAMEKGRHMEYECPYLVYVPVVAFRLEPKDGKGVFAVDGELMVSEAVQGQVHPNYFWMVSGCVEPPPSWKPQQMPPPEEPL
T4 sequence (Q16513 whole entry): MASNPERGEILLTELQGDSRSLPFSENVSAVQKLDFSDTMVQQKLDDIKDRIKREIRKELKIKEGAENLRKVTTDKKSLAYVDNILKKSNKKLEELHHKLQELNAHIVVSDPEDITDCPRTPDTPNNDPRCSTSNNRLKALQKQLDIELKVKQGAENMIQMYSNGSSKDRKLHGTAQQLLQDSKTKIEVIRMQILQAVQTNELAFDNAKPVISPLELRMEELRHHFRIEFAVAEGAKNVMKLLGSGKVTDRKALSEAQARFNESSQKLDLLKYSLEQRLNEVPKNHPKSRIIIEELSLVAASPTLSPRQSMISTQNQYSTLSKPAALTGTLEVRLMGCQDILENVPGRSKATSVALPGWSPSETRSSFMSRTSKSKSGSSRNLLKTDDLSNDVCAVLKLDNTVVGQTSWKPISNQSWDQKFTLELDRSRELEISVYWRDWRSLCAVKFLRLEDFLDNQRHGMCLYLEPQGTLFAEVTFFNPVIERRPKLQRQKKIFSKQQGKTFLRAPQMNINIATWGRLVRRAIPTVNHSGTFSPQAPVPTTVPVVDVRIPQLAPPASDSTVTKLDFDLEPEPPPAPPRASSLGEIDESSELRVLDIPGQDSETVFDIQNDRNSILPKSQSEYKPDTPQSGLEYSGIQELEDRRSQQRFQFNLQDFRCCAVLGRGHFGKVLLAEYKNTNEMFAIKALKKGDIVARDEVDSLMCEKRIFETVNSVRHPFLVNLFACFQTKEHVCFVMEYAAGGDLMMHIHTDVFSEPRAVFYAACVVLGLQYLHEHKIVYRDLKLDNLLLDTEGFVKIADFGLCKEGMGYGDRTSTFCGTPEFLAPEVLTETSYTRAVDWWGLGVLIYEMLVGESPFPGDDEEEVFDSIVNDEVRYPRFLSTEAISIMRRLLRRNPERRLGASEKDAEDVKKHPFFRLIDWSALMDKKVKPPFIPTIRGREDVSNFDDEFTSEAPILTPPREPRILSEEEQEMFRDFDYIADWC

O=C1C=CC2(C=C1)OCC(Cc1cc(C(F)(F)F)cc(C(F)(F)F)c1)C(=O)N2c1ccccc1 (racemic) [1c]
Cell Viability (%) [1]: 92 ± 13%
% Residual Activity at 30 μM [2]: 87.0 ± 1.1%
% Residual Activity at 30 μM [3]: 46.0 ± 0.8%
% Residual Activity at 30 μM [4]: 58.3 ± 0.7%
IC50 [5]: 70 ± 10 nM
% Residual Activity at 30 μM [6]: 63.5 ± 1.8%

O=C1C=CC2(C=C1)OCC(Cc1cn(-c3cccc(Cl)c3)nn1)C(=O)N2c1ccccc1 (stereo not shown) [2d, 3-((1-(3-Chlorophenyl)-1H-1,2,3-triazol-4-yl)methyl)-5-phenyl-1-oxa-5-azaspiro[5.5]undeca-7,10-diene-4,9-dione]
viability at 24 h, 1 µM ([7]; 1 μM compound): 112 ± 19.8%
viability at 24 h, 5 µM ([7]; 5 μM compound, % of LPS): 90 ± 6%
% Enzyme Activity (relative to DMSO controls) [8]: 107.43%
remaining activity at 30 µM [9]: 110%
% Enzyme Activity (relative to DMSO controls) [10]: 86.58%
remaining activity at 30 µM [10, 23]: 86.3%
% Enzyme Activity (relative to DMSO controls) ([11]; 30 μM compound, ATP 10 μM, duplicates Data 1/Data 2): 1.64%
remaining activity at 30 µM ([11]; 30 μM compound, ATP 10 μM, duplicates Data 1/Data 2, read-out: % Enzyme Activity (relative to DMSO controls)): 2.81%
remaining activity at 30 µM ([11]; 30 μM, ATP 10 μM, average ± SD, read-out: % Residual Activity at 30 μM): 2.2 ± 0.8%
inhibition at 30 µM ([11]; 30 μM, read-out: inhibition of GSK-3β in 70-kinase panel): > 90%
% Enzyme Activity (relative to DMSO controls) [12]: 100.85%
remaining activity at 30 µM [13]: 101%
% Enzyme Activity (relative to DMSO controls) [14]: 101.96%
remaining activity at 30 µM [14, 23]: 103%
IC50 ([5]; Mus musculus): 660 nM
% Enzyme Activity (relative to DMSO controls) [15]: 101.50%
remaining activity at 30 µM [15, 23]: 101%
% Enzyme Activity (relative to DMSO controls) [16]: 88.96%
remaining activity at 30 µM [17]: 95.8%
IC50 ([18]; ATP 1 μM (Table 2), read-out: IC50 on GSK3β (converted)): 7040 nM
remaining activity at 10 µM ([18]; at 10 μM compound): 51.1 ± 6.1%
% Enzyme Activity (relative to DMSO controls) [19]: 101.60%
remaining activity at 30 µM [19, 23]: 103%
% Enzyme Activity (relative to DMSO controls) [20]: 90.95%
remaining activity at 30 µM [20, 23]: 91.5%
% Enzyme Activity (relative to DMSO controls) [21]: 77.68%
remaining activity at 30 µM [21, 23]: 80.5%
secreted level of PGE2 [22]: concentration-dependent manner
